The data set has as its system AB22 cells. Put plainly: Cell uptake of boron (ICP-MS). The class given is cell-based, mouse. The note with it: AB22, 130 µM CA-SF in culture medium, 24 h, 37 °C. The method, then: For the in vitro uptake experiments, 6 × 10^5 MCF7, 4.5 × 10^5 ZL34 and 2 × 10^5 AB22 were seeded in 6 cm of diameter dishes. After 24 h for MCF7 and ZL34 and after 72 h for AB22, the cells were incubated for 24 h with increasing concentration of CA-SF. All the incubations were performed in condition of normoxia at 37 °C, 5% CO2. At the end of the incubation, cells were washed three times with 3 ml ice-cold PBS and detached with 0.05% trypsin and 0.02% EDTA. Finally, all cell samples were transferred in falcon tubes and sonicated at 30% of power for 30 s in ice. The boron content of each cell sample lysates was determined by ICP-MS technique (see below). The milligrams of proteins, proportional to the number of cells, of each cell sample lysate, was evaluated by the Bradford assay (Biorad) using bovine serum albumin as a standard.
Boron content from cell samples, mice organs, plasma and tumours were determined using inductively coupled plasma mass spectrometry (ICP-MS) (Element-2; Thermo-Finnigan, Rodano (MI), Italy).
Sample digestion was performed using a high performance Microwave Digestion System (ETHOS UP Milestone, Bergamo, Italy) after the addition of concentrated HNO3 (70%) to cell lysates (1:1), in a final volume of 0.4 mL. […] The amounts of boron µg /g tissue were thus calculated considering that 1 g of tissue contains 1 × 10^9 cells.

On to 1-Sulfonamidomethyl-o-carborane [CA-SF], for which the “boron loaded into the target cells” value was determined as 160 µg/g.

(Values after PMC7648750, “In vitro and in vivo BNCT investigations using a carborane containing sulfonamide targeting CAIX epitopes on malignant pleural mesothelioma and breast cancer cells” (Scientific Reports, 2020).)
